Data set [1] deals with T1, human 20S proteasome (hCP), C-L activity.
T1 construct: purchased Boston Biochem (Cambridge, MA, USA)
Description: C-L peptidase activity of isolated hCP (fluorogenic substrate). Type of data set: biochemical. An excerpt:
(§1) Purified human 20S proteasome (hCP) and the fluorogenic substrates Suc-LLVY-AMC, Z-Leu-Leu-Glu-AMC, and Ac-Arg-Leu-Arg-AMC used to assay the ChT-L, T-L, and C-L activity, were from Boston Biochem (Cambridge, MA, USA). Bathocuproinedisulfonic acid disodium salt (BCS), dithiothreitol (DTT), N-Acetyl-L-Cysteine (NAC), Sodium dodecylsulphate (SDS) as well as CuCl2 and Zn(NO3)2 were from Sigma-Aldrich (St. Louis, MO). Proteasome inhibitors Epoxomicin were obtained from Enzo Life Science. Wild type 20S proteasome isolated from Saccharomices Cerevisiae (yCP) and a mutant (α3ΔN) where nine residues of the N-terminal tail of the α3 subunit are deleted to provide a permanently open-gate conformations were isolated as described elsewhere.
(§2) Peptidase activities of hCP (2 nM) were assayed on in 50 μL Tris 25 mM pH 7.6, at 37 °C with 100 μM of the fluorogenic substrate. hCP was incubated with Cu(II)/Zn(II) ions for 1 h prior activity assays. The fluorescence signal activated by peptide cleavage was recorded at 440 nm (excitation at 360 nm) for 45 min, by a Varioskan (Thermo^©) plate reader in 384 multiwell plates. Three replicates were performed for each data point. Data were reported as normalized percentages of residual activity. The potency (IC50) was calculated from the value of the dose response plot corresponding at a fractional activity of 50%. The IC50 values were determined using a non linear fit of experimental data in according to equation: […]
(§3) The midpoint of this function occurs at a fractional activity value of 50%, corresponding to half inhibition of the target enzyme. The IC50 values and their standard errors were deduced from the fitting. To evaluate if copper is a reversible PI, we measured the ChT-L activity of hCP incubated with Cu(II) (2.20 μM) before and after addition of an equimolar amount of EDTA.

The target in data set [2] is T2, human 20S proteasome (hCP), ChT-L activity.
T2 construct: purchased Boston Biochem (Cambridge, MA, USA)
Description: ChT-L peptidase activity of isolated hCP (Suc-LLVY-AMC fluorogenic substrate). Type of data set: biochemical.
Text: as §1, §2, §3

The subject of data set [3] is T3, Wild type 20S proteasome (yCP).
T3 construct: made in house; host or cells: Saccharomyces cerevisiae
Description: ChT-L peptidase activity of wild type yeast 20S proteasome (yCP). Type of data set: biochemical, Saccharomices Cerevisiae. Conditions: one-way ANOVA, p < 0.05.
Text: Figure 4 (A) Copper(II)-inhibited ChT-L peptidase activity of yCP (red bars) and the α3ΔN mutant (green bars); (pdb code: 4Q1S). […] (B) Top views of the α-rings of yCP. C); Magnified picture of the yCP gate. The first nine residues of the α3 subunit, which are not present in the α3ΔN mutant, are represented in magenta. Two histidines (α6-H14 and α1-H6) located at the entrance of the gate and near the N-terminal segment of the α3 subunit are evidenced in red. A third His residue (α3-H30) is far away from the gate and is not shown.
as §1

Data set [4] relates to HeLa cells. Details: method as in PMID 9057888, PMID 21584299. Conditions: Cu(II)-supplemented media up to 100 μM; cited from earlier work.
In data set [5] the test system is T4, 26S/20S proteasome assembly in Hela cells.
T4 construct: endogenous in cells; host or cells: HeLa cells
Kind of data set: Non-denaturing gel with in-gel peptidase activity of HeLa lysates (20S/26S ratio). It is filed as cell-based, human. The following applies: 24 h. On the procedure:
Proteasome-enriched fractions were subjected to non denaturing native gel electrophoresis, as described elsewhere. Briefly, 100 μg of fractionated Hela cells lysates, pretreated for 24 h with 0, 20 or 80 μM Cu(II), were run on a 3–12% non-denaturing, gradient polyacrylamide gel (Invitrogen, Carlsbad, CA) according to a protocol reported elsewhere. hCP (2 μM) treated for 2 h with 0 μM, 20 μM and 80 μM of Cu (II) was used as reference control. Peptidolytic activity of proteasome-enriched fractions from cell lysates was evaluated after incubating the gels in a Suc-LLVY-AMC substrate dissolved in 50 mM Tris pH 8.0, 5 mM MgCl2, 1 mM DTT, 1 mM ATP, at 37 °C for 15 min. Proteasome bands were identified by the release of highly fluorescent free AMC which allowed us to identify the proteasome holo and subcomplexes. Images of the gels were acquired by Chemidoc (Biorad), and fluorescent bands were quantified by using the Image J software.

In data set [6] the test system is T5, 20S proteasome (CP) gate.
T5 construct: purchased Boston Biochem (Cambridge, MA, USA)
Kind of data set: Steady-state Trp fluorescence of SDS-activated 20S proteasome (gating). On the set-up: species or system human. Conditions: 100 μM Cu(II) added to SDS-activated CP (0.018% SDS), pH 7.6, 37 °C. On the procedure: In particular, fluorescence spectra of the isolated 20S proteasome may be deconvoluted into two components. The first of these bands is ascribable to Trp13(α6) residues which are located at the entrance of the channel. Therefore, a red-shift of the first component may be associated to a gate opening of the 20S proteasome. Here, we exploited this effect to investigate the role of Cu(II) ions in CP gate closing. […] Next, we recorded the fluorescence spectra obtained immediately (t = 0 min) and after 30 min the addition of 100 μM Cu(II) ions to the SDS-activated CP and deconvoluted the fluorescence spectra into the contributions from each type of tryptophan as described in the experimental section (see Fig. 3 panel A). […]
Fluorescence emission spectra of purified 20S proteasomes (1.5 μM) in a MOPS buffer 10 mM, 0.018% SDS, pH 7.6 were recorded at 37 °C over time prior to and following addition of Cu(II) (100 μM). […] The final fluorescence spectra represent averages of at least three measurements. […] Fluorescence spectra were recorded on a Horiba Fluoromax-4 spectrofluorimeter from 300 to 400 nm in 1-nm steps, at an excitation wavelength λexc = 295 nm. Deconvolution of fluorescence spectra into the log-normal components was performed according to the algorithms integrated into the web-based toolkit PFAST (http://pfast.phys.edu/)[43]. […]

In general, IC50 refers to the midpoint of a concentration-inhibition curve.

Like-named read-outs stand apart in the source and are kept apart here.

On to `[Cl][Cu][Cl]` [Cu(II), CuCl2], for which the IC50 in data set [1] (hCP 2 nM, 1 h preincubation with ions, Tris 25 mM pH 7.6, 37 °C, no SDS, read-out: IC50 C-L) turned out to be 1.01 µM; in data set [1] (in the presence of 0.018% SDS, other conditions unmodified, read-out: IC50 C-L, Cu(II) + SDS) it was 1.83 µM; in data set [2] (hCP 2 nM, 1 h preincubation with ions, Tris 25 mM pH 7.6, 37 °C, no SDS, read-out: IC50 ChT-L), 1.19 µM; in data set [2] (in the presence of 0.018% SDS, other conditions unmodified, read-out: IC50 ChT-L, Cu(II) + SDS), 0.73 µM. Also, the “Recovery of ChT-L activity after EDTA addition (reversibility)” value in data set [2] (hCP incubated with Cu(II) 2.20 μM, equimolar EDTA added) is “did not evidence any recovery of the ChT-L activity”. The “ChT-L activity of yCP at 5 μM versus 3 μM” value in data set [3] is on record as “significantly lower”. Moreover, in data set [4], the HeLa cell growth result was “not inhibited”. Besides, the “Intensity of CP, CP-RP and CP-RP2 bands” value in data set [5] (20 μM Cu(II)) is “does not vary with respect to control”. Also, in data set [5] (80 μM Cu(II)), the “Intensity of CP, CP-RP1 and CP-RP2 bands” value is on record as “the amount of CP increases”. For the same compound, the “Red shift of first Trp fluorescence component (gate opening)” value in data set [6] is “decreased rate of red-shift”.

The values are drawn from PMC5025780, “Copper(II) ions affect the gating dynamics of the 20S proteasome: a molecular and in cell study” (Scientific Reports, 2016).
